Experiment [1] concerns the target T1, aryl-alcohol oxidase (AAO) (Pleurotus eryngii, UniProt O94219).
T1 sequence (O94219 28-593): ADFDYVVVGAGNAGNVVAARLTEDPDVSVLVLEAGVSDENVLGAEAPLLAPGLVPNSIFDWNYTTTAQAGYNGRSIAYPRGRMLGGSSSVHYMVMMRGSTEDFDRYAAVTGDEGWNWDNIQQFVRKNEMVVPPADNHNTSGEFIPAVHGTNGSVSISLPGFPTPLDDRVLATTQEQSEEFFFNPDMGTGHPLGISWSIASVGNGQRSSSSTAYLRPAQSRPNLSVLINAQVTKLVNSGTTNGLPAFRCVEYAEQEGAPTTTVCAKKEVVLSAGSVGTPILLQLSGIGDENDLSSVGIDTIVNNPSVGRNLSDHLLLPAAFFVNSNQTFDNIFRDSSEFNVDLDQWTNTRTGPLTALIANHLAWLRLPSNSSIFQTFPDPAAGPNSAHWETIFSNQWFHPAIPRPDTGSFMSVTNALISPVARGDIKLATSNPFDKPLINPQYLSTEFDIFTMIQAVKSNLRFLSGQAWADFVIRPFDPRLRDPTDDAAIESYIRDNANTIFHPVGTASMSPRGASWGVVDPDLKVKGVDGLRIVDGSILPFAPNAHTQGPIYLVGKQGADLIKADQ
Put plainly: biochemical.

The target in experiment [2] is T1, aryl-alcohol oxidase (AAO). The experiment is described as follows: HPLC and 1H-NMR of oxidation by purified AAO. Format: biochemical. Set-up: mature AAO cDNA (GenBank AF064069) expressed in E. coli.
Experiment [3] has as its target aryl-alcohol oxidase (AAO) (Pleurotus eryngii, UniProt O94219, F528H). Put plainly: conversion to FDCA by purified variant with catalase, HPLC. Format: biochemical. The text has this:
(§1) conversion to FDCA by purified variant with catalase, HPLC on aryl-alcohol oxidase (AAO) | production of FDCA from HMF by native AAO, and its F501H, F397Y, and I500M/F501 W variants

The target of experiment [4] is aryl-alcohol oxidase (AAO) (Pleurotus eryngii, UniProt O94219, I527M/F528W). The description is as above. It is filed as biochemical.
Source text: as §1

In experiment [5] the target is aryl-alcohol oxidase (AAO) (Pleurotus eryngii, UniProt O94219, F424Y). The experiment is described as above. Format: biochemical.
Source text: as §1

Experiment [6] has as its target T1, aryl-alcohol oxidase (AAO). Put plainly: turnover at saturating aldehyde, spectrophotometric acid formation. Format: biochemical. Set-up: mature AAO cDNA (GenBank AF064069) expressed in E. coli. Here is the method: turnover at saturating aldehyde, spectrophotometric acid formation on aryl-alcohol oxidase (AAO) | Turnovers for aldehyde oxidation were calculated at saturating concentration of p-anisaldehyde

The term IC50 denotes the concentration needed to halve the response being measured.

With `OO` [H2O2], the IC50 in experiment [1] is roughly 158 µM.
In the case of `O=Cc1ccc(CO)o1` [HMF], the “HPLC and 1H-NMR of oxidation by purified AAO” value in experiment [2] was 2.54 h⁻¹. Further, the figures for the “% conversion” value in experiment [3], in experiment [4] and in experiment [5] were 97.9 % conversion, 52.8 % conversion and 75.7 % conversion, respectively.
`COc1ccc(C=O)cc1` [p-anisaldehyde]: the “p-Anisaldehyde / kcat” value in experiment [6] came out at 0.122 s⁻¹.

These data come from PMC6737615, “Complete oxidation of hydroxymethylfurfural to furandicarboxylic acid by aryl-alcohol oxidase” (Biotechnology for Biofuels, 2019).
